# Target: PDHK2 (Homo sapiens (Human), UniProt Q15119)
# Assay: Biochemical activity testing of PDHK2: PDC inactivation assay
# Conditions: human rec PDHK2, 5 μM ATP, read-out: IC50 PDHK2 (enzyme assay)
# From the text: Biochemical Activity Testing of PDHK2: PDC Inactivation Assay
# The biochemical activity assay for PDHK2 is based on the inactivation of PDC through phosphorylation by PDHK2. The assay is run in two steps: the enzymatic PDHK2 reaction in which isolated PDC is phosphorylated by PDHK2 with ATP as co-substrate and the PDC activity assay in which pyruvate and NAD are converted to acetyl-CoA and NADH. The PDC activity correlates to the increase in NADH and thereby is detectable directly via the increasing fluorescence signal (Exc 340 nm, Em 450 nm). Inhibition of PDHK2 results in a lower phosphorylation status and thereby a less decrease in activity of PDC and a stronger increase in NADH fluorescence signal.
# The PDC inactivation assay is performed in Greiner 384-well microtiter plates and is used for high throughput screen. 4 μl of PDHK2 (human, rec, Carna Bioscience, 10 ng/μl-137 nM final concentration) and PDC (isolated from porcine heart, Sigma-Aldrich, 20 mU/ml final concentration) are incubated in the absence or presence of the test compound (10 dilution concentrations) for 30 min at room temperature in kinase buffer (15 mM potassium phosphate buffer, pH 7.0, 60 mM KCl, 1.5 mM DTT, 2.5 mM MgCl2, 0.0125% (w/v) BSA, 0.125% Pluronic F-68). The kinase reaction is started by the addition of 4 μl ATP substrate solution (fc 5 μM in kinase buffer). After 30 min incubation at 37° C. 40 μl of PDC reaction solution (100 mM Tris/HCl, pH 7.8, 0.5 mM EDTA, 1 mM MgCl2, 50 mM NaF, 0.25 mM Coenzyme A, 5 mM pyruvate, 1 mM NAD, 5 mM DTT, 1 mM thiamine pyrophosphate) is added. The first fluorescence measurement is performed on a Perkin Elmer Envision (Exc 340 nm, Em 450 nm). The reaction is incubated for 45 min at room temperature. Afterwards a second fluorescence measurement is performed and the PDC activity is calculated by the difference between both measurements. As full value for the PDHK2 assay the inhibitor-free PDHK2 reaction is used. The pharmacological zero value used is DCA (Sigma-Aldrich) in a final concentration of 3 mM. The inhibitory values (IC50) were determined using either the program Symyx Assay Explorer® or Condosseo® from GeneData.
row,IC50 [µM],Compound
1,0.24,"Cc1ccc(N(C)C(=O)C2CCN(C(=O)[C@@](C)(O)C(F)(F)F)CC2C)cc1 (stereo partly drawn) [Compound A6, N,3-Dimethyl-N-(4-methylphenyl)-1-[(2R)-3,3,3-trifluoro-2-hydroxy-2-methylpropanoyl]piperidine-4-carboxamide]"
2,13,"C[C@H]1CN(C(=O)[C@@](C)(O)C(F)(F)F)CC[C@H]1N(C)C(=O)c1ccc(F)cn1 [Compound A54, 5-Fluoro-N-methyl-N-[(3S,4R)-3-methyl-1-[(2R)-3,3,3-trifluoro-2-hydroxy-2-methylpropanoyl]piperidin-4-yl]pyridine-2-carboxamide]"
3,2.4,"C[C@H]1CN(C(=O)[C@@](C)(O)C(F)(F)F)CC[C@H]1N(C)C(=O)c1ccc(C(F)(F)F)cc1F [Compound A48, 2-Fluoro-N-methyl-N-[(3S,4R)-3-methyl-1-[(2R)-3,3,3-trifluoro-2-hydroxy-2-methylpropanoyl]piperidin-4-yl]-4-(trifluoromethyl)benzamide]"
4,1.5,"CN(C(=O)C1CCN(C(=O)[C@@](C)(O)C(F)(F)F)CC1)c1ccc(C#N)cc1 [Compound A4, 1-((R)-3,3,3-Trifluoro-2-hydroxy-2-methyl-propionyl)-piperidine-4-carboxylic acid (4-cyano-phenyl)-methyl-amide]"
5,3.9,"C[C@H]1CN(C(=O)[C@@](C)(O)C(F)(F)F)CC[C@H]1N(C)C(=O)c1ccc(Cl)cc1F [Compound A60, 4-Chloro-2-fluoro-N-methyl-N-[(3S,4R)-3-methyl-1-[(2R)-3,3,3-trifluoro-2-hydroxy-2-methylpropanoyl]piperidin-4-yl]benzamide]"
6,4.9,"C[C@H]1CN(C(=O)[C@@](C)(O)C(F)(F)F)CC[C@H]1N(C)C(=O)c1ccc(F)cc1F [Compound A39, 2,4-Difluoro-N-methyl-N-[(3S,4R)-3-methyl-1-[(2R)-3,3,3-trifluoro-2-hydroxy-2-methylpropanoyl]piperidin-4-yl]benzamide]"
7,1.3,"COc1ccc(C(=O)N(C)[C@@H]2CCN(C(=O)[C@@](C)(O)C(F)(F)F)C[C@@H]2C)cc1 [Compound A36, 4-Methoxy-N-methyl-N-[(3S,4R)-3-methyl-1-[(2R)-3,3,3-trifluoro-2-hydroxy-2-methylpropanoyl]piperidin-4-yl]benzamide]"
8,1.7,"CC1CN(C(=O)[C@@](C)(O)C(F)(F)F)CCC1C(=O)N(C)c1ccc(C(F)(F)F)cc1Cl (stereo partly drawn) [Compound A15, N-[2-chloro-4-(trifluoromethyl)phenyl]-N,3-dimethyl-1-[(2R)-3,3,3-trifluoro-2-hydroxy-2-methylpropanoyl]piperidine-4-carboxamide]"
9,2.7,"Cc1ccc(C(=O)N(C)[C@@H]2CCN(C(=O)[C@@](C)(O)C(F)(F)F)C[C@@H]2C)cc1 [Compound A25, N,4-Dimethyl-N-[(3S,4R)-3-methyl-1-[(2R)-3,3,3-trifluoro-2-hydroxy-2-methylpropanoyl]piperidin-4-yl]benzamide]"
10,27,"C[C@H]1CN(C(=O)[C@@](C)(O)C(F)(F)F)CC[C@H]1N(C)C(=O)c1ccc(C#N)cc1 [Compound A45, 4-Cyano-N-methyl-N-[(3S,4R)-3-methyl-1-[(2R)-3,3,3-trifluoro-2-hydroxy-2-methylpropanoyl]piperidin-4-yl]benzamide]"

# Continued, compound first:
row,Compound,IC50 [µM]
1,"Cc1ccc(N(C)C(=O)[C@@H]2CCN(C(=O)[C@@](C)(O)C(F)(F)F)C[C@@H]2C)c(F)c1 [Compound A14, (3R,4R)—N-(2-fluoro-4-methylphenyl)-N,3-dimethyl-1-[(2R)-3,3,3-trifluoro-2-hydroxy-2-methylpropanoyl]piperidine-4-carboxamide]",0.77
2,"C[C@H]1CN(C(=O)[C@@](C)(O)C(F)(F)F)CC[C@H]1N(C)C(=O)c1ccc(Cl)cc1 [Compound A22, 4-Chloro-N-methyl-N-[(3S,4R)-3-methyl-1-[(2R)-3,3,3-trifluoro-2-hydroxy-2-methylpropanoyl]piperidin-4-yl]benzamide]",5.9
3,"C[C@H]1CN(C(=O)[C@@](C)(O)C(F)(F)F)CC[C@H]1C(=O)N(C)c1ccc(Cl)cc1 [Compound A11, (3R,4R)—N-(4-chlorophenyl)-N,3-dimethyl-1-[(2R)-3,3,3-trifluoro-2-hydroxy-2-methylpropanoyl]piperidine-4-carboxamide]",3.8
4,"C[C@H]1CN(C(=O)[C@@](C)(O)C(F)(F)F)CC[C@H]1N(C)C(=O)c1cnn(C)c1 [Compound A57, N,1-Dimethyl-N-[(3S,4R)-3-methyl-1-[(2R)-3,3,3-trifluoro-2-hydroxy-2-methylpropanoyl]piperidin-4-yl]-1H-pyrazole-4-carboxamide]",19
5,"C[C@H]1CN(C(=O)[C@@](C)(O)C(F)(F)F)CC[C@H]1N(C)C(=O)c1ccc(C(F)(F)F)cc1 [Compound A63, N-Methyl-N-[(3S,4R)-3-methyl-1-[(2R)-3,3,3-trifluoro-2-hydroxy-2-methylpropanoyl]piperidin-4-yl]-4-(trifluoromethyl)benzamide]",2.9
6,"C[C@H]1CN(C(=O)[C@@](C)(O)C(F)(F)F)CC[C@H]1N(C)C(=O)c1ccc(F)cc1 [Compound A30, 4-Fluoro-N-methyl-N-[(3S,4R)-3-methyl-1-[(2R)-3,3,3-trifluoro-2-hydroxy-2-methylpropanoyl]piperidin-4-yl]benzamide]",7.9
7,"C[C@H]1CN(C(=O)[C@@](C)(O)C(F)(F)F)CC[C@H]1N(C)C(=O)c1ccc(F)cc1Cl [Compound A51, 2-Chloro-4-fluoro-N-methyl-N-[(3S,4R)-3-methyl-1-[(2R)-3,3,3-trifluoro-2-hydroxy-2-methylpropanoyl]piperidin-4-yl]benzamide]",3.6
8,"C[C@H]1CN(C(=O)[C@@](C)(O)C(F)(F)F)CC[C@H]1N(C)C(=O)c1ncc(F)cc1F [Compound A42, 3,5-Difluoro-N-methyl-N-[(3S,4R)-3-methyl-1-[(2R)-3,3,3-trifluoro-2-hydroxy-2-methylpropanoyl]piperidin-4-yl]pyridine-2-carboxamide]",2.4
9,"Cc1ccc(N(C)C(=O)[C@@H]2CCN(C(=O)[C@@](C)(O)C(F)(F)F)C[C@@H]2C)cc1 [Compound A8, (3R,4R)—N,3-Dimethyl-N-(4-methylphenyl)-1-[(2R)-3,3,3-trifluoro-2-hydroxy-2-methylpropanoyl]piperidine-4-carboxamide]",5.1
10,"C[C@H]1CN(C(=O)[C@@](C)(O)C(F)(F)F)CC[C@H]1N(C)C(=O)c1ccccc1 [Compound A33, N-Methyl-N-[(3S,4R)-3-methyl-1-[(2R)-3,3,3-trifluoro-2-hydroxy-2-methylpropanoyl]piperidin-4-yl]benzamide]",3.4

# Target: human PDHK2 (12-407) (Homo sapiens (Human), UniProt Q15119)
# Assay: Isothermal titration calorimetry (ITC)
# Conditions: 30° C., pH 7.5; read-out: Binding (ITC) KD
# Protocol: Isothermal Titration Calorimetry
# ITC measurements were performed with a VP-ITC micro calorimeter (Microcal, LLC/GE Healthcare Bio-Sciences AB, Uppsala, Sweden). In general titrations were performed by titrating the protein (50 μM) to the test compound (5 μM) in 12 μl injections. All binding experiments were carried out at 30° C. In general the test compounds were diluted form DMSO stock solutions into the measurement buffer with a maximum final concentration of 1% DMSO. The measurement buffer was 20 mM HEPES, 135 mM KCl, 1 mM TCEP, 2 mM MgCl2, 15 mM NaH2PO4, pH 7.5. The human PDHK2 (12-407) was produced in E. coli as his-tagged protein and purified by affinity chromatography. The tag was removed by side specific proteolysis. Before titration the protein buffer was changed to the measurement buffer containing the same DMSO concentration as the test compound dilution. ITC data analysis was performed using Origin 7 calorimetry software from the same supplier. For most measurements a binding model of one binding site was assumed. According to the applied mathematical model it is possible to calculate the binding constant (KA), the observed binding enthalpy (ΔH^obs) as well as the stoichiometry (N) of the formed complex. Preceding analysis the raw data was corrected for the heats of dilution by extrapolating from the saturation value from the end of titration. In order to allow for direct comparison between the respective experimental series and protein preparations the protein concentration was corrected by referencing titrations to a well behaved standard inhibitor. The apparent stoichiometry values defined the fraction of binding competent protein and compensated for relative errors in protein concentration measurements. This corrected protein concentration was used to set up ITC experiment series with test compounds. Any deviations from ideal 1:1 stoichiometry observed here were attributed to errors in compound concentration. This nominal compound concentration was corrected as well to achieve 1:1 stoichiometry in the fit.
row,Kd [µM],Compound
1,5,"Cc1ccc(N(C)C(=O)[C@@H]2CCN(C(=O)[C@@](C)(O)C(F)(F)F)C[C@@H]2C)c(F)c1 [Compound A14, (3R,4R)—N-(2-fluoro-4-methylphenyl)-N,3-dimethyl-1-[(2R)-3,3,3-trifluoro-2-hydroxy-2-methylpropanoyl]piperidine-4-carboxamide]"
2,0.21,"CN(C(=O)C1CCN(C(=O)[C@@](C)(O)C(F)(F)F)CC1)c1ccc(C#N)cc1 [Compound A4, 1-((R)-3,3,3-Trifluoro-2-hydroxy-2-methyl-propionyl)-piperidine-4-carboxylic acid (4-cyano-phenyl)-methyl-amide]"

# System: PDH-E1alpha (pSer300) in HEK293T cells
# Assay: Cellular immunofluorescence assay (Anti-PDH-E1alpha (pSer300)) in HEK293T cells
# Type: cell-based
# Conditions: Homo sapiens, HEK-293T, 5 hours incubation, read-out: IC50 (cell data)
# Protocol: Cellular Assay for Determination of Compound Activities
# Compound activities were determined in a cellular immunofluorescence assay.
# Human HEK293T cells were seeded into black 384-well plates with clear bottom and grown overnight.
# Next day, test compounds were added to the wells and the plates incubated for 5 hours. Following this, cells were fixed with formaldehyde, permeabilised and blocked. The primary antibody, Anti-PDH-E1alpha (pSer300), AP1064 (Merck Millipore) was added and incubated overnight in the plate wells. Next, cells were washed and the secondary antibody, Alexa Fluor 488, goat anti-rabbit ab (A-11008, Invitrogen) was added together with Hoechst 33258 (H3569, Invitrogen) and incubated for 1 hour in the plate wells. Finally, cells were washed and the plates were measured on the laser scanning cytometer acumen hci (TTpLabtech).
# The raw data were normalized against a pharmacological inhibitor control and dose response curves were generated by plotting the percent effect values using the software package Genedata screener (Genedata).
row,Compound,IC50 [µM]
1,"Cc1ccc(N(C)C(=O)C2CCN(C(=O)[C@@](C)(O)C(F)(F)F)CC2C)cc1 (stereo partly drawn) [Compound A6, N,3-Dimethyl-N-(4-methylphenyl)-1-[(2R)-3,3,3-trifluoro-2-hydroxy-2-methylpropanoyl]piperidine-4-carboxamide]",0.2

# From patent US10428024B2, “Piperidinyl derivatives” (MERCK PATENT GMBH, priority 2016, dated 2019)
